Where “and” joins values, the source holds several entries; their conditions need not be identical. Equal entries are not always repeated.
Columns and labels:
HNSCC = HNSCC patients progressed on platinum-based chemotherapy; cited from earlier work
[1] = tested on: phosphorylated ERK1/2 (pERK); assay: in vitro pERK inhibition in KYSE-520; assay type: cell-based; conditions: Homo sapiens; KYSE-520 cells
Source text: (§1) SHP2 inhibition can be measured by assessing biomarkers within the MAPK signaling pathway, such as decreased levels of phosphorylated ERK1/2 (pERK) and downregulation of dual specificity phosphatase 6 (DUSP6) mRNA transcript.

[2] = tested on: phosphorylated ERK1/2 (pERK); assay: in vitro pERK inhibition in DETROIT-562; assay type: cell-based; conditions: Homo sapiens; DETROIT-562 cells
Source text: as §1

[3] = tested on: KYSE-520 (esophageal squamous cell carcinoma) cancer cell line; assay: antiproliferation in KYSE-520; assay type: cell-based; conditions: Homo sapiens; KYSE-520 cells
Source text: as §1

[4] = tested on: DETROIT-562 (pharyngeal squamous cell carcinoma) cancer cell line; assay: antiproliferation in DETROIT-562; assay type: cell-based; conditions: Homo sapiens; DETROIT-562 cells
[5] = tested on: EGFR-dependent DETROIT-562 cancer cell line; assay: in vivo SHP2 inhibition and efficacy, DETROIT-562 xenograft; conditions: oral 20 mg/kg
Source text: as §1

MC38 cell line = MC38 cell line in vitro proliferation/viability; assay type: cell-based, mouse; conditions: MC38 (PTPN11 G503V) in vitro, absence of immune cells
MC38 xenografts = MC38 xenografts in immunocompromised NSG mice; assay type: in vivo, mouse
MC38 tumors = assay: MC38 syngeneic tumors in immune-competent C57BL/6 mice, anti-tumor activity; assay type: in vivo, mouse; conditions: day 14 post-first dose, TNO155 20 mg/kg BID, anti-PD1 10 mg/kg QW
CD14+ monocytes = assay: M-CSF stimulated proliferation of CD14+ monocytes (CellTiter-Glo); assay type: cell-based, human; conditions: 50 ng/mL M-CSF, 6 days incubation
Experimental: Investigation of the effect of TNO155 on M-CSF stimualted proliferation of CD14+ monocytes. Peripheral blood mononuclear cells (PBMC) were isolated from the whole blood of two donors (donor 1670 and […]) by CPT tubes and spinning at 1800 rpm for 20 minutes. CD14 positive monocytes were then isolated from PBMC using human Pan Monocyte Isolation Kit (Miltenyi Biotec #130-096-537). 5000 monocytes suspended in 100 μL RPMI media were seeded in 96 well plates with 50 ng/mL recombinant M-CSF. 24 hours later, TNO155 was added at the indicated final concentrations. A CellTiter-Glo® (CTG) cell viability assay was performed according to manufacturer's instructions using a separate plate with identically seeded cells and also performed for all plates after 6 days of incubation with TNO155. The Day 6 measurements were normalized with DMSO treated groups as 100% to evaluate the TNO155 effects on the M-CSF stimulated proliferation of monocytes and the Day 0 cell seeding measurement was indicated by the light dotted line.

in vivo = conditions: mouse
IL-2 production = assay type: cell-based; conditions: human blood ex vivo, super antigen stimulation with Staphylococcal enterotoxin B (SEB)
rodent PD-1 = assay: cross-reactivity with rodent PD-1; assay type: binding
human PD-1 = molecular target: T1, human PD-1 (human, UniProt Q15116 25-167, limits assumed); assay: Biacore (SPR); format not stated
T1 construct: also called human PD1 antigen; Programmed Death 1
T1 sequence (Q15116 25-167 limits assumed): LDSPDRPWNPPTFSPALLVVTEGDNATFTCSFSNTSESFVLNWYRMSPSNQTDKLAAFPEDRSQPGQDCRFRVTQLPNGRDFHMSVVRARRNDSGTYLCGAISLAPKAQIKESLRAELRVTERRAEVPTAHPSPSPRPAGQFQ

## nivolumab: anti-programmed death-1 (PD-1) antibody
HNSCC
  survival rate at one year: 36%

## C[C@@H]1OCC2(CCN(c3cnc(Sc4ccnc(N)c4Cl)c(N)n3)CC2)[C@@H]1N [TNO155, (3S,4S)-8-(6-amino-5-((2-amino-3-chloropyridin-4-yl)thio)pyrazin-2-yl)-3-methyl-2-oxa-8-azaspiro[4.5]decan-4-amine]
[1]
  IC50: 8 nM and 0.0034 µg/mL
[2]
  IC50: 35 nM
[3]
  IC50: 100 nM
[4]
  IC50: 470 nM
[5]; DETROIT-562 in vivo
  decrease in DUSP6 mRNA transcript: approximately 95%
[5]; twice-daily schedule, DETROIT-562
  tumor regression: 47%
MC38 cell line
  effect on cell proliferation or viability: no effect on cell proliferation or viability
MC38 xenografts; 20 mg/kg BID, MC38 in NSG mice
  anti-tumor activity: lack of anti-tumor activity
MC38 xenografts; MC38 with G503V mutation
  impact on downstream MAPK-signaling markers (phospho-ERK, phospho-RSK) in tumor cells: no impact
MC38 tumors
  treatment/control (T/C): 33.3%
CD14+ monocytes
  M-CSF stimulated proliferation of CD14+ monocytes: blocked
In vivo
  MTD: 20 mg/kg

B1: PDR001 (spartalizumab) (antibody, V domains shown)
VH: EVQLVQSGAEVKKPGESLRISCKGSGYTFTTYWMHWVRQATGQGLEWMGNIYPGTGGSNFDEKFKNRVTITADKSTSTAYMELSSLRSEDTAVYYCTRWTTGTGAYWGQGTTVTVSS
VL: EIVLTQSPATLSLSPGERATLSCKSSQSLLDSGNQKNFLTWYQQKPGQAPRLLIYWASTRESGVPSRFSGSGSGTDFTFTISSLEAEDAATYYCQNDYSYPYTFGQGTKVEIK
IL-2 production
  enhancement of IL-2 production: approximately 2 fold
Rodent PD-1
  cross-reactivity with rodent PD-1: does not cross-react
Human PD-1
  Kd: 0.827 nM

Reference: patent US20220160706A1, “PHARMACEUTICAL COMBINATION COMPRISING TNO155 AND A PD-1 INHIBITOR” (NOVARTIS AG, priority 2019, published 2022)
